The text below walks through data of patent US11987578B1, “7-(4-((5-(2-chlorobenzylideneamino)-2-thioxo-1,3,4-thiadiazol-3(2H)-yl)methyl)piperazin-1-yl)-1-cyclopropyl-6-fluoro-4-oxo-1,4-dihydroquinoline-3-carboxylic acid as an anti-inflammatory compound” (KING FAISAL UNIVERSITY, priority 2023, dated 2024).

Like-named read-outs stand apart in the source and are kept apart here.

For one series, the target named is Bovine Serum Albumin (Bos taurus, UniProt P02769). Briefly: Bovine Serum Albumin Assay (BSA), inhibition of heat-induced protein denaturation. Type of series: biochemical. On the procedure:
Bovine Serum Albumin Assay (BSA) In vitro-inflammatory activities of the tested samples were determined using a modified method of the BSA assay reported by Williams et al. BSA solution (0.4%, w/v) was prepared in Tris Buffered Saline. The pH was adjusted to 6.4 with glacial acetic acid. Different dilutions of 20, 40, 60, 80, and 100 μg/mL of 7-(4-((5-(2-chlorobenzylideneamino)-2-thioxo-1,3,4-thiadiazol-3(2H)-yl)methyl)piperazin-1-yl)-1-cyclopropyl-6-fluoro-4-oxo-1,4-dihydroquinoline-3-carboxylic acid stock solutions were added to test tubes containing 1 mL of 0.4%, w/v BSA buffer solution. Both negative (solvent) and positive (aspirin) controls were assayed in a similar manner. The solutions were then heated in a water bath at 72° C. for 10 minutes and cooled for 20 minutes under laboratory conditions. The turbidity of the solutions (level of protein precipitation) was measured at 660 nm in Spectrophotometer (V-770 UV-Visible/NIR Spectrophotometer). The percentage inhibition of precipitation (protein denaturation) was determined relative to the negative control using the following equation: [formula]

Sequence of Bovine Serum Albumin (P02769 25-607): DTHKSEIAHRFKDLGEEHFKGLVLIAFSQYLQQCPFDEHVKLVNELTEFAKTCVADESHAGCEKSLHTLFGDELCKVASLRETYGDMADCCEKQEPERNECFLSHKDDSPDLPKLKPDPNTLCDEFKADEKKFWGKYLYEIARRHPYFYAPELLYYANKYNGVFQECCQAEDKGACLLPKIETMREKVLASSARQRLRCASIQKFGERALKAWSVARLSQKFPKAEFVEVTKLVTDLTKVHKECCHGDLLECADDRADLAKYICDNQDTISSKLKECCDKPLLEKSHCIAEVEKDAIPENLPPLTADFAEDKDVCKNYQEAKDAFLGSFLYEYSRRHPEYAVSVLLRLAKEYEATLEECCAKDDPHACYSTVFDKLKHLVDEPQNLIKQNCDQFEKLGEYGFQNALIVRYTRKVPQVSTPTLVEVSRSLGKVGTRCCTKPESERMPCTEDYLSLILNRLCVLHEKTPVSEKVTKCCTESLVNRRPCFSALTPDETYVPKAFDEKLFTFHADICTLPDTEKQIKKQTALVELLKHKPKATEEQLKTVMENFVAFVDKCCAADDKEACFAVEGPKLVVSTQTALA

As a reminder, the melting point is the temperature of the solid-liquid transition. `O=C(O)c1cn(C2CC2)c2cc(N3CCN(Cn4nc(/N=C/c5ccccc5Cl)sc4=S)CC3)c(F)cc2c1=O` [7-(4-((5-(2-chlorobenzylideneamino)-2-thioxo-1,3,4-thiadiazol-3(2H)-yl)methyl)piperazin-1-yl)-1-cyclopropyl-6-fluoro-4-oxo-1,4-dihydroquinoline-3-carboxylic acid] had a melting point of 207 to 209 °C. Also, the “in vitro anti-inflammatory activity” value at Bovine Serum Albumin (BSA assay, result in words) is on record as “considerable anti-inflammatory effect”. Further, the inhibition at 100 µg/mL at Bovine Serum Albumin (pH 6.4, read-out: percentage inhibition of precipitation (protein denaturation)) turned out to be 90.2%.

In the case of `CC(=O)Oc1ccccc1C(=O)O` [aspirin, reference compound], the inhibition at 100 µg/mL on Bovine Serum Albumin (100 μg/ml, 0.4% w/v BSA, pH 6.4, 72° C. for 10 minutes, turbidity at 660 nm, relative to negative control, read-out: percentage inhibition of precipitation (protein denaturation)) was 96.8%.
